Experimental data: patent US20250213561A1, “SELECTIVE HYPOTHALAMUS PERMEABLE HDAC6 INHIBITORS FOR TREATMENT OF LEPTIN-RESISTANT OBESITY” (The Children’s Medical Center Corporation, priority 2022, published 2025)
“Also recorded” adds a separate entry of the source.

What was measured:
[1] = test system: DIO mice; assay: Chronic treatment of DIO mice (body weight, food intake, DEXA, glucose homeostasis); assay type: in vivo; conditions: high fat diet induced mice
Protocol: DIO mice were treated with ACY775 (10 mg/kg/day, i.p.) for 3 weeks. Daily body weight (g) of DIO mice treated with vehicle (n=17) or ACY775 (n=17) during 3 weeks of treatment was determined. Daily food intake (g) during 3 weeks of vehicle or ACY775 treatment was assessed. 24 hours' food intake per mouse during the first week of vehicle or ACY775 treatment was determined. Serum leptin (ng/ml) levels after 3 weeks of vehicle (n=24) or ACY775 (n=24) treatment was assessed. Lean mass (g), fat mass (g) and fat percentage (%) after 3 weeks of vehicle (n=17) or ACY775 (n=17) treatment measured by Dual-energy X-ray absorptiometry (DEXA) scan. DEXA scans were performed in two different cohorts. Glucose tolerance test (GTT) after 1 week of vehicle (n=33) or ACY775 (n=26) treated DIO mice was assessed. Area of curve (AOC) analysis for GTT was performed. Blood glucose (mg/dl) levels after 1 week of vehicle (n=17) or ACY775 (n=16) were assessed in treated DIO mice. Insulin tolerance test (ITT) was performed after 2 weeks of vehicle (n=31) or ACY775 (n=21) treatment of DIO mice. Serum insulin (ng/ml) levels were measured after 3 weeks of vehicle (n=22) or ACY775 (n=21) in treated DIO mice. A homeostatic model assessment of insulin resistance (HOMA-IR) was analyzed after 3 weeks of vehicle (n=14) or ACY775 (n=13) treated DIO mice.
Food intake was analyzed hourly until 3:00 am. […] DEXA scans were performed in two different cohorts.
DIO mice then were treated with ricolinostat (50 mg/kg, i.p.) for 3 weeks. Daily body weight (g), daily food intake (g), serum leptin (ng/ml) levels after 3 weeks of vehicle (n-8) or ricolinostat (n=8) treatment, lean mass (g); fat mass and fat percentage (%) after 3 weeks of vehicle (n=16) or ricolinostat (n=17) treatment measured by DEXA scan were determined.
Blood glucose (mg/dl) levels were measured after 1 week of vehicle (n=16) or ricolinostat (n=16) treated DIO mice. GTT after 1 week of vehicle (n=17) or ricolinostat (n=16) treatment of DIO mice was assessed. AOC analysis for GTT was performed. ITT after 2 weeks of vehicle (n=17) or ricolinostat (n=16) treated DIO mice was measured. Serum insulin (ng/ml) levels after 3 weeks of vehicle (n=8) or ricolinostat (n=8) treatment were measured in DIO mice. Liver sections from 3 weeks of vehicle or ricolinostat treated DIO mice were stained by H&E.
DIO mice then were treated with bavarostat (10 mg/kg, i.p.) for 3 weeks and daily body weight (g) of DIO mice treated with Veh (n=9) or bavarostat (n=9) measured during the three weeks of treatment period. Daily food intake (g) during 3 weeks of Veh or bavarostat treatment was also measured.
ACY1083 was administered to DIO mice as described in Example 3.

[2] = in vivo; cited from earlier work
[3] = biological target: HDAC6 (Homo sapiens (Human), UniProt Q9UBN7); conditions: unit printed as AM; unit of the source corrected; cited from earlier work
[4] = test system: DIO mice; assay: Chronic treatment of DIO mice (body weight, food intake, DEXA, glucose homeostasis); assay type: in vivo; conditions: 14 days, oral administration
[5] = test system: HDAC6 in AgRP neurons; assay: DIO mice with HDAC6 depleted in AgRP neurons (HDAC6^Agrp-Δ); assay type: in vivo; conditions: HDAC6^Agrp-Δ versus HDAC6^WT DIO mice
Protocol: Design, validation, and stereotaxic injection of AAV viral vector carrying the guide RNAs targeting the mouse HDAC6 genomic locus. Three designed sgRNAs were concatenated and constructed into an AAV vector carrying a cre-enabled mCherry fluorescent marker.
Following the bilateral injection of AAV-sgHDAC6 into the arcuate nucleus of Agrp-ires-cre::LSL-Cas9-GFP (Agrp-Cre^+/−::Cas9^+/−) or control LSL-Cas9-GFP (Cas9^+/−) mice, immunostaining to detect the expression of mCherry and GFP was performed. AAV-sg-HDAC6 injected Agrp-Cre^+/−::Cas9^+/− (HDAC6^Agrp-Δ) and Cas9^+/−(HDAC6^WT) DIO mice (n=7 for each group) were fasted for 24 hours, and injected with ACY775 (10 mg/kg. i.p). Hourly total dark cycle food intake (g) (n=7 for each group) of these mice after ACY775 injection was measured. Body weight of AAV-sg-HDAC6 injected HDAC6^Agrp-Δ (n=11) and HDAC6^WT (n=6) mice were measured during 3 weeks of ACY775 (10 mg/kg/day, i.p.) treatment. Daily average food intake of HDAC6^Agrp-Δ (n=11) and HDAC6^WT (n=6) mice was measured during 3 weeks of ACY775 (10 mg/kg/day, i.p.) treatment. 24-hour food intake average of HDAC6^Agrp-Δ and HDAC6^WT mice during the 3 weeks of ACY775 treatment was assessed. Serum leptin level (ng/ml) of HDAC6^Agrp-Δ and HDAC6^WT mice after 2 weeks of ACY775 treatment (n=13 for HDAC6^WT and n=18 for HDAC6^Agrp-Δ) was measured. Lean mass (g); fat mass; and fat percentage (%) of HDAC6^Agrp-Δ and HDAC6^WT DIO mice after 3 weeks of ACY775 treatment was measured by DEXA scan. The HDAC6 inhibitor responsive neurons in the dorsomedial hypothalamus (DMH) were assessed. Immunostaining and quantification of c-Fos expression was performed in the DMH of DIO mice following one-time ACY775 treatment (10 mg/kg, i.p.).

[6] = test system: HDAC6-KO DIO mice; assay: Chronic treatment of DIO WT versus HDAC6 KO mice; assay type: in vivo; conditions: DIO mice
[7] = Brain/plasma ratio and brain or hypothalamus penetration; conditions: in vivo
[8] = test system: DIO mice; conditions: diet-induced obese mice; cited from earlier work

HDAC6, sequence (Q9UBN7 whole entry, species assumed): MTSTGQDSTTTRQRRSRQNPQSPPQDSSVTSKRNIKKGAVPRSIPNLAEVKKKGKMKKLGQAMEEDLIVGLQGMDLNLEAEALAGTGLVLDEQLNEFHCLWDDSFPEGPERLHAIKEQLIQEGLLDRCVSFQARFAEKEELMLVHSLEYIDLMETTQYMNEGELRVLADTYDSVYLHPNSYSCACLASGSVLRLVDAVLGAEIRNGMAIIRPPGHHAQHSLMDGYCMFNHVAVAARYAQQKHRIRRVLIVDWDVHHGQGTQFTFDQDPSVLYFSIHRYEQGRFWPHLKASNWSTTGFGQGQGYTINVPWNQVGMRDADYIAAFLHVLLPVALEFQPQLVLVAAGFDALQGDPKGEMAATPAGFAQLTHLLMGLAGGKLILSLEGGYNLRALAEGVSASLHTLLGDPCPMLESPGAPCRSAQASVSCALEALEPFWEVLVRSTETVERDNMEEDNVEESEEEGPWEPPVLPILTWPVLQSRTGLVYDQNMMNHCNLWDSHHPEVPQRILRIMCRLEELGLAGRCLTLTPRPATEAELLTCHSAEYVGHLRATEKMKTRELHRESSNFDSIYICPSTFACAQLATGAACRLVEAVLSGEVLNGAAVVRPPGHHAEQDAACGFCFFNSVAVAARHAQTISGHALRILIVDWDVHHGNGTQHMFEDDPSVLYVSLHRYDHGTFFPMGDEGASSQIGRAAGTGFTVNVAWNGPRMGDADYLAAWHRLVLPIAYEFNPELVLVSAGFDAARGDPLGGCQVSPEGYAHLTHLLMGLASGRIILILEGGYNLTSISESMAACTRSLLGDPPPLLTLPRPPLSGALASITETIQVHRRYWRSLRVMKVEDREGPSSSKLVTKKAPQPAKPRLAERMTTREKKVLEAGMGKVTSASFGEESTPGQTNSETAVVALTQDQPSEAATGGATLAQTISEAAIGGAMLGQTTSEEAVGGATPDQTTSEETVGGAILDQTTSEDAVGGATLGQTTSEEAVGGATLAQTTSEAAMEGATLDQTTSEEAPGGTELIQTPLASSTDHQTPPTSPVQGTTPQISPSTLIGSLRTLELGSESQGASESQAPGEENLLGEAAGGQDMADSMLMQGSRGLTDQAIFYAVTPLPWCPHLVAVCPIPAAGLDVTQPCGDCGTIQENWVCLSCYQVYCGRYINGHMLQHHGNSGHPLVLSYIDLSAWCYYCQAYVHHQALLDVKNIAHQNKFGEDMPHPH

SMILES | food intake and total body fat mass (summary) [1] | brain penetrance / BBB permeability [2] | HDAC6 IC50 [3] [nM] | body weight [4] | anti-obesity effects on chronic treatment [5] | blood glucose, serum insulin and leptin levels, WT versus HDAC6 KO [6] | fat mass and fat %, WT versus HDAC6 KO [6] | food intake, WT versus HDAC6 KO [6] | glucose tolerance and insulin sensitivity (GTT, ITT), WT versus HDAC6 KO [6] | lean mass, WT versus HDAC6 KO [6] | body weight, WT versus HDAC6 KO ([6]; 3 weeks, ACY775 10, ACY738 50, Tubastatin A 25 mg/kg/day i.p.) | penetrance into the hypothalamus [7] | anti-obesity effects reported by Cakir et al. [8]
O=C(NO)c1cnc(NC2(c3ccccc3)CCC(F)(F)CC2)nc1 [ACY1083] | significant reduction of food intake and total body fat mass | brain-penetrating | 3 | significant decrease in body weight; also recorded: reduced body weight |  |  |  |  |  |  |  |  | 
CN1CCc2c(c3ccccc3n2Cc2ccc(C(=O)NO)cc2)C1 [tubastatin A] |  | extremely low |  |  | did not change Tubastatin A's effects on suppressing feeding or body weight | all reduced equally in the wt and HDAC6 KO group | significantly lower in both wt and HDAC6 KO groups | reduced similarly | improved glucose tolerance and increased insulin sensitivity in both wt and the HDAC6 KO mice | not different | reduced the body weight of the HDAC6 KO mice the same as the wt mice | neither of which have high penetrance into the hypothalamus | reduce food intake, fat mass, hepatic steatosis and improve systemic glucose homeostasis
